# Like-named read-outs stand apart in the source and are kept apart here.
# Experiments:
# HBV genome = assay: IC 50 of HBV siRNA duplexes (Table A); parameters: species or system Hepatitis B virus; conditions: siRNA duplex
# HBsAg [1] = assay: Serum HBsAg in pHBV1.3 hydrodynamic injection mouse model of HBV (Example 12); format: in vivo, NOD.CB17-Prkdc scid/J mice; HBV genotype D, serotype ayw; conditions: for Serum HBsAg log reduction: once daily oral from Day 0: RNA destabilizer 10 mg/kg, encapsidation inhibitor 100 mg/kg, nucleos(t)ide analog 0.4 mg/kg, group mean ± SEM, n=7 or 8, from negative control
# Protocol: (§1) On Day −7, 10 micrograms of the plasmid pHBV1.3 (constructed based on details provided in Guidotti, L., et al., Journal of Virology, 1995, 69(10): 6158-6169) was administered to NOD.CB 17-Prkdc^scid/J mice via hydrodynamic injection (HDI; rapid 1.6 mL injection into the tail vein). […] As readouts of the anti-HBV effect of the treatments, serum HBV DNA and serum HBsAg were assessed. Serum HBV DNA concentration in mice was measured using a quantitative PCR assay following total DNA extraction using previously published primers and probe sequences (Tanaka, Y., et al., Journal of Medical Virology, 2004, 72: 223-229). Serum HBsAg concentration in mice was measured using a commercially available ELISA kit (HBsAg EIA 3.0 480 Test Kit, Bio-Rad).
# (§2) Animals were treated with RNA destabilizer as follows: Starting on Day 0, a 10 mg/kg dosage of RNA destabilizer was administered orally to animals on a once-daily frequency for a total of seven doses across the duration of the study. Animals were treated with encapsidation inhibitor as follows: Starting on Day 0, a 100 mg/kg dosage of encapsidation inhibitor was administered orally to animals on a once-daily frequency for a total of seven doses across the duration of the study. Animals were treated with nucleos(t)ide analog as follows: Starting on Day 0, a 0.4 mg/kg dosage of nucleos(t)ide analog was administered orally to animals on a once-daily frequency for a total of seven doses across the duration of the study. The RNA destabilizer, the encapsidation inhibitor, and nucleos(t)ide analog were each dissolved in the same co-solvent formulation for administration and negative control animals were administered the co-solvent formulation alone. To calculate treatment-specific effects, the treated groups are compared against negative control (vehicle treated) animals.
# (§3) The effect of these treatments was determined by collecting blood on Days −1 (prior to study's treatment phase), 4, and 7 and analyzing it for serum HBV DNA and HBsAg content.
# HBV DNA [2] = assay: Serum HBV DNA in pHBV1.3 hydrodynamic injection mouse model of HBV (Example 12); format: in vivo, NOD.CB17-Prkdc scid/J mice; HBV genotype D, serotype ayw; conditions: once daily oral from Day 0: RNA destabilizer 10 mg/kg, encapsidation inhibitor 100 mg/kg, nucleos(t)ide analog 0.4 mg/kg, group mean ± SEM, n=7 or 8, from negative control
# Protocol: as §1, §2, §3
# HBV DNA [3] = format: in vivo, C57BL/6 mice; HBV serotype Ayw, genotype D; conditions: group mean ± SEM, n=6
# Protocol: (§4) Prior to treatment start, 1×10^11 viral genomes of an adeno-associated virus (AAV) vector carrying a 1.3-fold overlength copy of an HBV genome (serotype Ayw, genotype D) was administered to C57BL/6 mice via intravenous injection. Introduction of this viral vector results in the expression of HBV DNA and HBV surface antigen (HBsAg) amongst other HBV products. Serum HBV DNA levels in mice was measured using a quantitative polymerase chain reaction (QPCR) assay, HBsAg in serum and liver of mice was measured using an enzyme-linked immunosorbent assay (ELISA), and anti-HBsAg antibodies were measured using ELISA.
# (§5) Treatment effects on serum HBV DNA were determined by collecting a small amount of blood on Days 0 (pre-treatment) and 14, as well as from terminal blood collections at Day 42. Treatment effects on HBsAg in serum and liver were determined from terminal sample collections at Day 42.
# (§6) Any individual animal samples measured to fall below assay lower limit of quantitation (LLOQ) were reported as the LLOQ value.
# HBsAg [4] = assay: Liver HBsAg by ELISA in AAV-HBV mouse model (Example 18); format: in vivo, C57BL/6 mice; HBV serotype Ayw, genotype D; conditions: Study Day 42; siRNA 3 mg/kg s.c. Days 0 and 28, encapsidation inhibitor 100 mg/kg and/or TDF 1 mg/kg oral daily Days 0-41; group mean ± SEM, n=6
# Protocol: as §4, §5, §6
compound,measurement,setting,value
"4m: ""double stranded siRNA molecules selected from the group consisting of 1m, 2m, 3m ... 15m"" (sense GCUCAGUUUACUAGUGCCAUU; antisense UUCGAGUCAAAUGAUCACGGU; chemistry not fully specified; one strand is listed 3' to 5') [Compound 4m]",IC50,HBV genome,0.31 nM
COCCCOc1cc2c(nc1OC)-c1cc(=O)c(C(=O)O)cn1[C@H](C(C)C)C2 [RNA destabilizer],Serum HBsAg log reduction,HBsAg [1]; Day 4,0.75 ± 0.03 log
same,Serum HBsAg log reduction,HBsAg [1]; Day 7,0.86 ± 0.04 log
same,effect on viral protein production (serum HBsAg biomarker),"HBsAg [1]; mouse, once-daily oral, seven doses",reductive effect on viral protein production
same,Serum HBV DNA log reduction,HBV DNA [2]; Day 4,0.48 ± 0.11 log
same,Serum HBV DNA log reduction,HBV DNA [2]; Day 7,0.48 ± 0.10 log
Cn1cnc(COC(=O)N[C@H]2CCc3c(C(=O)Nc4ccc(F)c(Cl)c4)ccc(F)c32)n1 [Encapsidation Inhibitor],Serum HBV DNA,HBV DNA [3]; Day 0 (pre-treatment),4.45 ± 0.13 log10 copies/microliter
same,Serum HBV DNA,"HBV DNA [3]; Day 14, siRNA 3 mg/kg s.c. Days 0 and 28, encapsidation inhibitor 100 mg/kg and/or TDF 1 mg/kg oral daily",3.89 ± 0.07 log10 copies/microliter
same,Serum HBV DNA,"HBV DNA [3]; Day 42, siRNA 3 mg/kg s.c. Days 0 and 28, encapsidation inhibitor 100 mg/kg and/or TDF 1 mg/kg oral daily Days 0-41",4.49 ± 0.07 log10 copies/microliter
same,Liver HBsAg,HBsAg [4],2.03 ± 0.03 log10 IU/mg liver protein
same,Serum HBsAg log reduction,HBsAg [1]; Day 4,−0.12 ± 0.03 log
same,Serum HBsAg log reduction,HBsAg [1]; Day 7,0.07 ± 0.04 log
same,Serum HBV DNA log reduction,HBV DNA [2]; Day 4,0.94 ± 0.07 log
same,Serum HBV DNA log reduction,HBV DNA [2]; Day 7,0.86 ± 0.12 log
"10m: ""double stranded siRNA molecules selected from the group consisting of 1m, 2m, 3m ... 15m"" (sense GCCGAUCCAUACUGCGGAAUU; antisense UUCGGCUAGGUAUGACGCCUU; chemistry not fully specified; one strand is listed 3' to 5') [Compound 10m]",IC50,HBV genome,0.34 nM
"2m: ""double stranded siRNA molecules selected from the group consisting of 1m, 2m, 3m ... 15m"" (sense GCUCAGUUUACUAGUGCCAUU; antisense UUCGAGUCAAAUGAUCACGGU; chemistry not fully specified; one strand is listed 3' to 5') [Compound 2m]",IC50,HBV genome,0.37 nM
"11m: ""double stranded siRNA molecules selected from the group consisting of 1m, 2m, 3m ... 15m"" (sense GCCGAUCCAUACUGCGGAAUU; antisense UUCGGCUAGGUAUGACGCCUU; chemistry not fully specified; one strand is listed 3' to 5') [Compound 11m]",IC50,HBV genome,0.31 nM

# From patent US20220168430A1, “THERAPEUTIC METHODS FOR TREATING HEPATITIS B” (priority 2019, published 2022)
